In paper PMC9120017, “Inhibition mechanism of the chloride channel TMEM16A by the pore blocker 1PBC” (Nature Communications, 2022):
Where two headings read alike, the source gives them in different places.

Molecular target: T1, mouse TMEM16A mutant I551A (Mus musculus, UniProt Q8BHY3, I551A)
T1 construct: expressed in transfected cells; host or cells: HEK293T
T1 sequence (Q8BHY3 1-960 I551A): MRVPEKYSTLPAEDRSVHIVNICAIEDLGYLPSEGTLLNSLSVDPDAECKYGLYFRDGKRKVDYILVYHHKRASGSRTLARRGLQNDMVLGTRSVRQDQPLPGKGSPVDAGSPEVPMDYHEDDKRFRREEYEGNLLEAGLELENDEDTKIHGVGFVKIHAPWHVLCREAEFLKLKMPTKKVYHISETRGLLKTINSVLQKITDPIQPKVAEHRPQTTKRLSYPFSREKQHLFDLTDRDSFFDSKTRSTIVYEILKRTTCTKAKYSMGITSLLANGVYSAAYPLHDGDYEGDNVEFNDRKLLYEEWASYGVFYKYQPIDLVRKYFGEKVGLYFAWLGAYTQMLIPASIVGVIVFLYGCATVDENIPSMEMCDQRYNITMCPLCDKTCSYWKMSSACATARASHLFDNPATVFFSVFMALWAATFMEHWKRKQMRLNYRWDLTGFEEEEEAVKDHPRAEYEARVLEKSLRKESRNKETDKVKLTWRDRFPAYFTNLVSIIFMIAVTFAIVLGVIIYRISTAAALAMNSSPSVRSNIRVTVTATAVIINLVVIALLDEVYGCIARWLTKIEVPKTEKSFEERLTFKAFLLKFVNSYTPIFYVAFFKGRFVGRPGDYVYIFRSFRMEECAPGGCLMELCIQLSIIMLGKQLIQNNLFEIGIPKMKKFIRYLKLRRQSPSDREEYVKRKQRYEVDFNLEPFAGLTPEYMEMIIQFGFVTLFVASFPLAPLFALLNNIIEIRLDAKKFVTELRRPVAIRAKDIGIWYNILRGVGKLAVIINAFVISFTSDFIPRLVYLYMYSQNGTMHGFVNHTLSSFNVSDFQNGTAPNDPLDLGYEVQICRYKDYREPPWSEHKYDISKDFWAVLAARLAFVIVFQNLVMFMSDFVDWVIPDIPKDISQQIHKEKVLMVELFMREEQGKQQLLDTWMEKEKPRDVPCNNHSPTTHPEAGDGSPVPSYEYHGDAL
Test: Inside-out patch recording of 1PBC block, constitutively active mutant I551A
Type: cell-based
Settings: for remaining activity at 3 µM: 3 µM 1PBC; for remaining activity at 10 µM: 10 µM 1PBC; for remaining activity at 30 µM: 30 µM 1PBC
Experimental: HEK293T cells (ATCC CRL-1573) were maintained in Dulbecco’s modified Eagle’s medium (DMEM; Sigma-Aldrich) supplemented with 10 U ml^−1 penicillin, 0.1 mg ml^−1 streptomycin (Sigma-Aldrich), 2 mM L-glutamine (Sigma-Aldrich), and 10% FBS (Sigma-Aldrich) in a humidified atmosphere containing 5% CO2 at 37 °C. HEK293S GnTI^− cells (ATCC CRL-3022) were maintained in HyClone HyCell TransFx-H medium (GE Healthcare) supplemented with 10 U ml^−1 penicillin, 0.1 mg ml^−1 streptomycin, 4 mM L-glutamine, 0.15% poloxamer 188 (Sigma-Aldrich), and 1% FBS in an atmosphere containing 5% CO2 at 185 rpm at 37 °C. The ac splice variant of mouse TMEM16A (UniProt ID: Q8BHY3), mouse TMEM16B (UniProt ID: Q8CFW1), or mouse TMEM16F (UniProt ID: Q6P9J9) bearing a 3C cleavage site, a Venus YFP, a Myc tag, and a Streptavidin-binding peptide (SBP) downstream of the open reading frame in a modified pcDNA3.1 vector (Invitrogen) were used as described previously[21],[31]. Mutations were introduced using a modified QuikChange method[58] and were verified by sequencing.
HEK293T cells were transfected with 3–4 μg DNA per 6 cm Petri dish using the calcium phosphate co-precipitation method and were used within 24–96 h after transfection. Recordings were performed on inside-out patches excised from HEK293T cells expressing the construct of interest. Patch pipettes were pulled from borosilicate glass capillaries (O.D. 1.5 mm, I.D. 0.86 mm, Sutter Instrument) and were fire-polished with a microforge (Narishige) before use. Pipette resistance was typically 3–8 MΩ when filled with the recording solutions detailed below. Seal resistance was typically 4 GΩ or higher. Voltage-clamp recordings were made using Axopatch 200B, Digidata 1550, and Clampex 10.7 (Molecular Devices). Analog signals were filtered with the in-built 4-pole Bessel filter at 10 kHz and were digitized at 20 kHz. Solution exchange was achieved using a gravity-fed system through a theta glass pipette mounted on an ultra-fast piezo-driven stepper (Siskiyou). […] All recordings were performed at 20 °C.
A symmetrical ionic condition was used throughout. Stock solution with Ca^2+-EGTA contained 150 mM NaCl, 5.99 mM Ca(OH)2, 5 mM EGTA, and 10 mM HEPES at pH 7.40. Stock solution with EGTA contained 150 mM NaCl, 5 mM EGTA, and 10 mM HEPES at pH 7.40. Free Ca^2+ concentrations were adjusted by mixing the stock solutions at the required ratios calculated using the WEBMAXC program (http://web.stanford.edu/~cpatton/webmaxcS.htm). Patch pipettes were filled with the stock solution with Ca^2+-EGTA, which has a free Ca^2+ concentration of 1 mM. 1PBC (ChemBridge) stock was reconstituted in anhydrous DMSO (Sigma-Aldrich) at 100 mM and stored at −20 °C. Working solutions with 1PBC were prepared by serial dilution. Unless otherwise stated, experiments were performed at a saturating Ca^2+ concentration as shown in Supplementary Table 1 and the primary data were corrected for current rundown as described previously[21],[25].
Concentration-response relations, obtained from the ratio of the I-V plots before and after the application of the blocker, were fitted to the Hill equation,1 I/Imax=1/1+IC50/[blocker]^h where I/Imax is the normalized current responses, IC50 defines the concentration at which inhibition is at its half-maximum, and h is the Hill coefficient.

[1] = 0 mV, 2 µM Ca2+, read-out: I/Imax
[2] = 0 mV, zero Ca2+, read-out: I/Imax

- I/Imax_+80mV (0Ca, 3 μM 1PBC): 0.9297
- I/Imax_-80mV (0Ca, 3 μM 1PBC): 0.9659
- I/Imax_+80mV (0Ca, 10 μM 1PBC): 0.7725
- I/Imax_-80mV (0Ca, 10 μM 1PBC): 0.8504
- I/Imax_+80mV (0Ca, 30 μM 1PBC): 0.5277
- I/Imax_-80mV (0Ca, 30 μM 1PBC): 0.6475
- I/Imax_+80mV (0Ca, 100 μM 1PBC): 0.2921
- I/Imax_-80mV (0Ca, 100 μM 1PBC): 0.3933
- remaining activity at 1 µM (1 µM 1PBC, 0 mV, 2 µM Ca2+, read-out: I/Imax): 80.9%
- remaining activity at 3 µM [1]: 60.1%
- remaining activity at 3 µM [2]: 93.2%
- remaining activity at 10 µM [1]: 31.1%
- remaining activity at 10 µM [2]: 80.6%
- remaining activity at 30 µM [1]: 14.8%
- remaining activity at 30 µM [2]: 58.2%
- remaining activity at 100 µM (100 µM 1PBC, 0 mV, zero Ca2+, read-out: I/Imax): 33.3%
- I/Imax_+80mV (Ca, 1 μM 1PBC): 0.7719
- I/Imax_-80mV (Ca, 1 μM 1PBC): 0.9016
- I/Imax_+80mV (Ca, 3 μM 1PBC): 0.5347
- I/Imax_-80mV (Ca, 3 μM 1PBC): 0.7407
- I/Imax_+80mV (Ca, 10 μM 1PBC): 0.2656
- I/Imax_-80mV (Ca, 10 μM 1PBC): 0.4452
- I/Imax_+80mV (Ca, 30 μM 1PBC): 0.1169
- I/Imax_-80mV (Ca, 30 μM 1PBC): 0.2272
SMILES: N#Cc1c(C(F)(F)F)cc(O)n2c1nc1ccccc12 [1PBC]
